Reference: patent US11319326B2, “Tricyclic fused derivatives of 1-(cyclo)alkyl pyrtdin-2-one useful for the treatment of cancer” (JUBILANT BIOSYS LIMITED, priority 2015, dated 2022)

Tested on: MV4-11 cells
Assay: Anticancer activity: Alamar Blue 3-day proliferation assay
Type: cell-based
Details: AML cell line MV4-11, 72 h, read-out: MV4-11 EC50_μM
Method: Anticancer Activity: Alamar Blue Assay
The impact of the compounds on cancer cell proliferation was determined using the AML cell line MV4-11 (ATCC) in a 3-day proliferation assay. MV4-11 cells were maintained in RPMI supplemented with 10% FBS at 37° C., 5% CO2. For compound testing, MV4-11 cells were plated in a 96-well black bottom plate at a density of 15,000 cells/well in 100 μL culture media and incubated at 37° C. overnight. Compound dilution series were prepared in DMSO via a 3-fold serial dilution from 100 μM to 0.005 μM. The DMSO dilution series were then diluted with media, with the final compound concentrations added to the wells ranging from 10 μM to 0.0005 μM. […] The fluorescent readings from the Alamar Blue assay were normalized to the DMSO treated cells and analyzed using the GraphPad Prism software with sigmoidal curve fitting to obtain EC50.

EC50: 13 nM
Structure (SMILES): CCNC(=O)CC1N=C(c2c(F)cccc2F)c2cc(OC)ccc2-c2cn(C)c(=O)cc21 (racemic) [Compound 38, ±2-(7-(2,6-difluorophenyl)-9-methoxy-2-methyl-3-oxo-3,5-dihydro-2H-benzo[c]pyrido[3,4-e]azepin-5-yl)-N-ethylacetamide]
